# In patent US7858738B2, “Synthetic human peptides and pharmaceutical compositions comprising them for the treatment of systemic lupus erythematosus” (Yeda Research and Development Co., Ltd., priority 2001, dated 2010):
# How the values were obtained:
# [1] = test system: PBL of SLE patients; test: IL-2 secretion by PBL of SLE patients stimulated with the human 16/6Id mAb (CTLL line); type: cell-based; conditions: for patients whose PBL IL-2 secretion was inhibited: 23 responders stimulated by the human 16/6Id; for Maximum inhibition % (IL-2 secretion): PBL of 23 responders; for Maximum inhibition % (IL-2 secretion) / Inhibitory Activity* % (IL-2 secretion): IL-2 secretion with 16/6 Id alone = 100%; for inhibition of the IL-2 secretion by PBL: PBL of one SLE patient, FIG. 8; for Inhibitory Activity* % (IL-2 secretion): share of 23 responders with inhibition of 50% or more
# Method: It was of interest to find out whether the hCDR peptides are capable of inhibiting IL-2 secretion by PBL of SLE patients following stimulation with the human 16/6Id mAb. […] To this end, PBL of SLE patients were incubated with the human 16/6Id mAb in the absence or presence of the peptides hCDR1 or hCDR3. Supernatants of the cultures were collected following 48 hours of incubation. Assays to determine levels of IL-2 in the supernatants were performed using the CTLL IL-2 dependent line. Briefly, cells of the CTLL line (2×10^4/well) were incubated in the presence of the different supernatants for 24 hours, followed by the addition of ^3H-thymidine for an additional 18-hour incubation period. Cells were then harvested and radioactivity counted using a β-counter. Results were calculated based on recombinant human IL-2 used as a standard. The ability of the peptides to inhibit the IL-2 secretion of PBL of 23 responders stimulated by the human 16/6Id was tested. […] Inhibition of proliferative responses of PBL directly correlated with IL-2 inhibition by the CDR-based peptides.
# [2] = test system: PBL of SLE patients; test: Proliferative response of PBL of SLE patients to the human 16/6Id mAb; type: cell-based; conditions: for inhibition of the proliferative responses of PBL to the human 16/6Id mAb / inhibition of the proliferative responses of PBL to human 16/6Id mAb: PBL of one SLE patient; for inhibition of the proliferative responses of PBL to the human 16/6Id mAb: FIG. 6; for inhibition of the proliferative responses of PBL to human 16/6Id mAb: FIG. 7, reversed murine peptides as controls; for Percent Inhibition of proliferation of PBL: highest positive inhibition, peptide 50 or 100 μg/well; for Percent Inhibition of proliferation of PBL, Mean ± SD: mean over the 19 responder SLE patients (positive inhibitions, above 50%); for responders whose PBL proliferation was inhibited (inhibition above 50% considered positive): of the 19 responder SLE patients tested
# Method: Induction and treatment of experimental SLE. In order to induce experimental SLE, BALB/c mice were immunized with 1-2 μg of the human mAb 16/6Id and boosted 3 weeks later. For the prevention of experimental SLE, mice were given hCDR1 or hCDR3 (mCDR1 or revmCDR1 as control peptide in Example 12) intravenously (i.v.) or s.c. concomitant with the immunization, and were injected weekly thereafter for 5 weeks. Treatment of an established disease started three and a half months following disease induction with the 16/6Id, when clinical manifestations were already observed. In Example 12, mice received 10 weekly injections (i.v. or s.c.) of mCDR1 or revmCDR1 at a dose of 100 μg/mouse. Prevention and treatment of SLE-like disease in (NZB×NZW)F1 mice with the hCDR1 or mCDR1 peptide. For prevention of SLE, mice at the age of 2 months, before disease manifestations are observed, were injected s.c. with hCDR1 (or mCDR1 in Example 12, 250 μg/mouse) once a week for 10 weeks. To treat an established disease, mice at the age of 5-7 months were injected with hCDR1 (in Example 12, mCDR1 s.c., 250 μg/mouse) once a week for 10 weeks. Proliferative Responses. PBL were isolated from heparinized venous blood by Ficoll-Hypaque (Pharmacia) density-gradient centrifugation. All assays were performed, in triplicate, in flat-bottomed microtiter plates (Falcon, Becton Dickinson, Oxmard, Calif., USA) in which 2×10^5 PBL were cultured in enriched RPMI-1640 as described (Dayan et al., 2000). The PBL were exposed to various concentrations (0.1-40 μg/well) of the human anti-DNA 16/6Id mAb with and without the addition of the various CDR-based peptides at a concentration of at least 10-fold excess over that of the 16/6Id. Phytohemagglutinin (PHA; 2 μg/well) was used as a control for culture conditions at each experiment. The cultures were incubated in 7.5% CO2 at 37° C. for 6 days. Eighteen hours before the cells were harvested, [^3H]-thymidine (0.5μ Ci of 5 Ci/mmol) (Nuclear Research Center, Negev, Israel) was added to all cultures. Results are expressed as the mean thymidine incorporation in counts per minute (CPM) of triplicate culture±SD, or as stimulation index (S.I.; the ratio of mean CPM at the optimal concentration of the human 16/6Id to the mean CPM in the presence of medium alone). A S.I.≧2 was considered a positive response (Dayan et al., 2000). Inhibition (the ratio of mean CPM in the presence of the 16/6Id and various CDR-based peptides to the mean CPM with the 16/6Id without the CDR-based peptide) above 50% was considered positive. Induction of Cytokine Production. Mice that were immunized with the human 16/6Id mAb and either treated or not with the CDR-based peptide, were killed at different periods during or after treatment with the peptide. Splenocytes and lymph node cells (LNC) were harvested and incubated (5×10^6/ml) in the presence of the 16/6Id. Supernatants were collected after 48 and 72 h. Assessment of Cytokines in the Supernatants. Supernatants were collected 48 hours following the initiation of the cultures and stored at −70° C. Measurements of IL-2, IL-10, IFN-γ, and TNF-α were performed by ELISA by using the relevant standards, capture and detecting Abs (Pharmingen) according to the manufacturer's instructions. TGF-β was determined by an ELISA. Briefly, plates were coated with the recombinant human TGF-β1 sRIII/Fc chimera (R & D Systems Inc., Minneapolis, Minn., USA), and the second Ab used was the biotinylated anti-human TGF-β1 antibody (R & D Systems Inc.). The substrate solution used was TMB color Reagent (Helix Diagnostics, West Sacramento, Calif.), and enzyme activity was evaluated by using 570- and 630-nm filters. Detection of SLE-Associated Clinical and Pathological Manifestations. Proteinuria was measured semiquantitatively by using Combistix kit (Ames Division, Bayer Diagnostics, Newbury, U.K.). White blood cells (WBC, for leukopenia) were counted after a 10-fold dilution of heparinized blood in distilled water containing 1% acetic acid (vol/vol). […]
# [3] = test system: PBL of SLE patients; test: Proliferation of PBL of SLE patients stimulated with the mitogen PHA; type: cell-based, human; conditions: PBL of one SLE patient; PHA 2 μg/ml; FIG. 5
# Method: To this end the peptides hCDR1 or hCDR3 were added to cultures of PBL of SLE patients that were stimulated with the mitogen phytohemagglutinin (PHA, 2 μg/ml).
Sequence,patients whose PBL IL-2 secretion was inhibited [1],Maximum inhibition % (IL-2 secretion) [1],inhibition of the IL-2 secretion by PBL [1],Inhibitory Activity* % (IL-2 secretion) [1],inhibition of the proliferative responses of PBL to the human 16/6Id mAb [2],inhibition of the proliferative responses of PBL to human 16/6Id mAb [2],Percent Inhibition of proliferation of PBL ([2]; SLE patient 1),Percent Inhibition of proliferation of PBL ([2]; SLE patient 2 (M. D.)),Percent Inhibition of proliferation of PBL ([2]; SLE patient 3),Percent Inhibition of proliferation of PBL ([2]; SLE patient 4),Percent Inhibition of proliferation of PBL ([2]; SLE patient 5),Percent Inhibition of proliferation of PBL ([2]; SLE patient 6),Percent Inhibition of proliferation of PBL ([2]; SLE patient 7),Percent Inhibition of proliferation of PBL ([2]; SLE patient 8 (S. D.)),Percent Inhibition of proliferation of PBL ([2]; SLE patient 9),Percent Inhibition of proliferation of PBL ([2]; SLE patient 10),Percent Inhibition of proliferation of PBL ([2]; SLE patient 11),Percent Inhibition of proliferation of PBL ([2]; SLE patient 12),Percent Inhibition of proliferation of PBL ([2]; SLE patient 13),Percent Inhibition of proliferation of PBL ([2]; SLE patient 14),further results
"GYYWSWIRQPPGKGEEWIG (Human) [hCDR1, 19-mer peptide based on the CDR1 of the heavy chain of the human 16/6Id mAb]",21/23,84 ± 31%,100%,91 (21/23) %,inhibited efficiently,did inhibit efficiently,62%,70%,69%,<50%,88.5%,80%,76%,58%,69.5%,68.2%,<50%,82%,63%,56%,"Percent Inhibition of proliferation of PBL ([2]; SLE patient 15): 63%; Percent Inhibition of proliferation of PBL ([2]; SLE patient 16): <50%; Percent Inhibition of proliferation of PBL ([2]; SLE patient 17): 70.5%; Percent Inhibition of proliferation of PBL ([2]; SLE patient 18): 51.5%; Percent Inhibition of proliferation of PBL ([2]; SLE patient 19): 63%; Percent Inhibition of proliferation of PBL, Mean ± SD [2]: 68.12 ± 9.57%; responders whose PBL proliferation was inhibited (inhibition above 50% considered positive) [2]: 84.2%; inhibition of the proliferative responses of the PBL to the mitogen PHA [3]: could not inhibit"
"YYCARGLLRGGWNDVDYYGMDV (Human) [hCDR3, peptide based on the CDR3 of the heavy chain of the human 16/6Id mAb]",19/23,78 ± 34%,100%,83 (19/23) %,inhibited efficiently,did inhibit efficiently,<50%,75%,<50%,<50%,87.5%,80%,70.4%,56%,65%,71.8%,72%,86%,64%,74%,"Percent Inhibition of proliferation of PBL ([2]; SLE patient 15): 69%; Percent Inhibition of proliferation of PBL ([2]; SLE patient 16): 68%; Percent Inhibition of proliferation of PBL ([2]; SLE patient 17): 77.8%; Percent Inhibition of proliferation of PBL ([2]; SLE patient 18): <50%; Percent Inhibition of proliferation of PBL ([2]; SLE patient 19): 60.8%; Percent Inhibition of proliferation of PBL, Mean ± SD [2]: 71.82 ± 8.44%; responders whose PBL proliferation was inhibited (inhibition above 50% considered positive) [2]: 78.9%; inhibition of the proliferative responses of the PBL to the mitogen PHA [3]: could not inhibit"
